Laboratory results published in ChEMBL document CHEMBL1143799, “Synthesis and primary cytotoxicity evaluation of new imidazo[2,1-b]thiazole derivatives” (2007).
Blank lines part the entries; values can stand above or below the compound they belong to.

How the values were obtained:
Assay type in all cases: functional
MCF7 = test: Cytotoxicity against human MCF7 cells assessed as growth at 100 uM after 48 hrs by SRB protein assay relative to control; conditions: MCF7, 48 h, read-out: Activity
NCI-H460 = test: Cytotoxicity against human […] cells assessed as growth at 100 uM after 48 hrs by SRB protein assay relative to control; conditions: NCI-H460, 48 h, read-out: Activity
SF-268 = test: Cytotoxicity against human SF268 cells assessed as growth at 100 uM after 48 hrs by SRB protein assay relative to control; conditions: SF-268, 48 h, read-out: Activity
K562 = test: Growth inhibition of human K562 cells after 48 hrs by SRB protein assay; conditions: K562, 48 h; for TGI: read-out: Log TGI (converted)
MOLT-4 = test: Growth inhibition of human MOLT4 cells after 48 hrs by SRB protein assay; conditions: MOLT-4, 48 h; for TGI: read-out: Log TGI (converted)
RPMI-8226 = test: Growth inhibition of human RPMI8226 cells after 48 hrs by SRB protein assay; conditions: RPMI-8226, 48 h; for TGI: read-out: Log TGI (converted)
A549 = test: Growth inhibition of human A549 cells after 48 hrs by SRB protein assay; conditions: A549, 48 h; for TGI: read-out: Log TGI (converted)
NCI-H226 = test: Growth inhibition of human NCI-H226 cells after 48 hrs by SRB protein assay; conditions: NCI-H226, 48 h; for TGI: read-out: Log TGI (converted)
NCI-H322M = test: Growth inhibition of human NCI-H322M cells after 48 hrs by SRB protein assay; conditions: for TGI: read-out: Log TGI (converted)
SF-295 = test: Growth inhibition of human SF295 cells after 48 hrs by SRB protein assay; conditions: SF-295, 48 h; for TGI: read-out: Log TGI (converted)
U-251 = test: Growth inhibition human U251 of cells after 48 hrs by SRB protein assay; conditions: U-251, 48 h; for TGI: read-out: Log TGI (converted)
LOX IMVI = test: Growth inhibition of human LOX IMVI cells after 48 hrs by SRB protein assay; conditions: for TGI: read-out: Log TGI (converted)
SK-MEL-2 = test: Growth inhibition of human SK-MEL-2 cells after 48 hrs by SRB protein assay; conditions: SK-MEL-2, 48 h; for TGI: read-out: Log TGI (converted)
[1] = Growth inhibition of human 786O cells after 48 hrs by SRB protein assay; conditions: 786-0, 48 h; for TGI: read-out: Log TGI (converted)
ACHN = test: Growth inhibition of human ACHN cells after 48 hrs by SRB protein assay; conditions: for TGI: read-out: Log TGI (converted)
TK-10 = test: Growth inhibition of human TK10 cells after 48 hrs by SRB protein assay; conditions: TK-10, 48 h; for TGI: read-out: Log TGI (converted)
NCI/ADR-RES = test: Growth inhibition of human NCI/ADR-RES cells after 48 hrs by SRB protein assay; conditions: for TGI: read-out: Log TGI (converted)
BT-549 = test: Growth inhibition of human BT549 cells after 48 hrs by SRB protein assay; conditions: BT-549, 48 h; for TGI: read-out: Log TGI (converted)
OVCAR-4 = test: Growth inhibition of human OVCAR4 cells after 48 hrs by SRB protein assay; conditions: OVCAR-4, 48 h; for TGI: read-out: Log TGI (converted)
A498 = test: Growth inhibition of human A498 cells after 48 hrs by SRB protein assay; conditions: A498, 48 h; for TGI: read-out: Log TGI (converted)

SMILES: O=C(Cc1csc2nc(-c3ccc(Br)cc3)cn12)N/N=C/c1ccccc1O
- growth at 100 µM (MCF7): 7%
- growth at 100 µM (NCI-H460): 0%
- growth at 100 µM (SF-268): 50%
- GI50 (K562): 0.0372 µM
- TGI (K562): 2.95 µM
- GI50 (MOLT-4): 2.34 µM
- TGI (MOLT-4): 10.7 µM
- GI50 (RPMI-8226): 2.82 µM
- TGI (RPMI-8226): 20.9 µM
- GI50 (A549): 6.17 µM
- TGI (A549): 24 µM
- GI50 (NCI-H226): 1.95 µM
- TGI (NCI-H226): 7.76 µM
- GI50 (NCI-H322M): 2.14 µM
- TGI (NCI-H322M): 10.7 µM
- GI50 (SF-295): 2.75 µM
- TGI (SF-295): 9.33 µM
- GI50 (U-251): 3.63 µM
- TGI (U-251): 15.1 µM
- GI50 (LOX IMVI): 3.47 µM
- TGI (LOX IMVI): 12.9 µM
- GI50 (SK-MEL-2): 20.9 µM
- TGI (SK-MEL-2): 53.7 µM
- GI50 [1]: 4.68 µM
- TGI [1]: 17.8 µM
- GI50 (ACHN): 1.58 µM
- TGI (ACHN): 6.31 µM
- GI50 (TK-10): 2.04 µM
- TGI (TK-10): 8.71 µM
- GI50 (NCI/ADR-RES): 2.51 µM
- TGI (NCI/ADR-RES): 6.76 µM
- GI50 (BT-549): 10 µM
- TGI (BT-549): 22.4 µM

SMILES: COc1cccc(OC)c1/C=N/NC(=O)Cc1csc2nc(-c3ccc(Br)cc3)cn12
- growth at 100 µM (MCF7): 27%
- growth at 100 µM (NCI-H460): 15%
- growth at 100 µM (SF-268): 82%
- GI50 (K562): 2.95 µM
- TGI (K562): 6.92 µM
- GI50 (MOLT-4): 3.47 µM
- TGI (MOLT-4): 8.13 µM
- GI50 (RPMI-8226): 10.2 µM
- TGI (RPMI-8226): > 100 µM
- GI50 (A549): 11.5 µM
- TGI (A549): 38.9 µM
- GI50 (NCI-H322M): 14.8 µM
- TGI (NCI-H322M): 61.7 µM
- GI50 (SF-295): 12.3 µM
- TGI (SF-295): 34.7 µM
- GI50 (U-251): 13.8 µM
- TGI (U-251): 31.6 µM
- GI50 (LOX IMVI): 12.6 µM
- TGI (LOX IMVI): 47.9 µM
- GI50 (SK-MEL-2): 89.1 µM
- TGI (SK-MEL-2): > 100 µM
- GI50 (OVCAR-4): 28.2 µM
- TGI (OVCAR-4): > 100 µM
- GI50 [1]: 26.3 µM
- TGI [1]: > 100 µM
- GI50 (ACHN): 17 µM
- TGI (ACHN): 34.7 µM
- GI50 (TK-10): 16.2 µM
- TGI (TK-10): 51.3 µM
- GI50 (NCI/ADR-RES): 12.9 µM
- TGI (NCI/ADR-RES): 35.5 µM
- GI50 (BT-549): 12.9 µM
- TGI (BT-549): 33.9 µM

SMILES: O=C(Cc1csc2nc(-c3ccc(Br)cc3)cn12)N/N=C/c1ccc(Cl)cc1Cl
- growth at 100 µM (MCF7): 46%
- growth at 100 µM (NCI-H460): 24%
- growth at 100 µM (SF-268): 94%
- GI50 (MOLT-4): 1 µM
- TGI (MOLT-4): 26.3 µM
- GI50 (RPMI-8226): 79.4 µM
- TGI (RPMI-8226): > 100 µM
- GI50 (A549): 17 µM
- TGI (A549): 37.2 µM
- GI50 (NCI-H226): 31.6 µM
- TGI (NCI-H226): 91.2 µM
- GI50 (NCI-H322M): 24.5 µM
- TGI (NCI-H322M): 69.2 µM
- GI50 (SF-295): 34.7 µM
- TGI (SF-295): > 100 µM
- GI50 (U-251): 20.4 µM
- TGI (U-251): 44.7 µM
- GI50 (LOX IMVI): 21.4 µM
- TGI (LOX IMVI): 49 µM
- GI50 (SK-MEL-2): 72.4 µM
- TGI (SK-MEL-2): > 100 µM
- GI50 (OVCAR-4): 37.2 µM
- TGI (OVCAR-4): > 100 µM
- GI50 [1]: 25.7 µM
- TGI [1]: 74.1 µM
- GI50 (A498): 29.5 µM
- TGI (A498): 63.1 µM
- GI50 (ACHN): 22.4 µM
- TGI (ACHN): 53.7 µM
- GI50 (NCI/ADR-RES): 17.4 µM
- TGI (NCI/ADR-RES): 52.5 µM
- GI50 (BT-549): 25.7 µM
- TGI (BT-549): 77.6 µM

SMILES: Nc1nc2[nH]cnc2c(=S)[nH]1 [THIOGUANINE]
- GI50 (K562): 0.407 µM
- TGI (K562): 70.8 µM
- GI50 (MOLT-4): 0.269 µM
- TGI (MOLT-4): 15.5 µM
- GI50 (RPMI-8226): 0.398 µM
- TGI (RPMI-8226): 20.9 µM
- GI50 (A549): 3.55 µM
- TGI (A549): 105 µM
- GI50 (NCI-H226): 4.07 µM
- TGI (NCI-H226): 97.7 µM
- GI50 (NCI-H322M): 7.41 µM
- TGI (NCI-H322M): 224 µM
- GI50 (SF-295): 1.02 µM
- TGI (SF-295): 158 µM
- GI50 (U-251): 4.9 µM
- TGI (U-251): 240 µM
- GI50 (LOX IMVI): 0.209 µM
- TGI (LOX IMVI): 9.12 µM
- GI50 (SK-MEL-2): 0.933 µM
- TGI (SK-MEL-2): 10.7 µM
- GI50 (OVCAR-4): 1.51 µM
- TGI (OVCAR-4): 100 µM
- GI50 [1]: 0.832 µM
- TGI [1]: 107 µM
- GI50 (A498): 6.76 µM
- TGI (A498): 95.5 µM
- GI50 (ACHN): 1.95 µM
- TGI (ACHN): 112 µM
- GI50 (TK-10): 1.05 µM
- TGI (TK-10): 79.4 µM
- GI50 (BT-549): 3.63 µM
- TGI (BT-549): 162 µM

More lines, main results first:

- GI50 (MOLT-4): 6.76 µM
- GI50 (RPMI-8226): 7.41 µM
- GI50 (A549): 13.5 µM
- GI50 (NCI-H322M): 19.1 µM
- GI50 (U-251): 12.9 µM
- GI50 (SK-MEL-2): 33.1 µM
- GI50 (OVCAR-4): 46.8 µM
- GI50 (ACHN): 10.7 µM
- GI50 (BT-549): 12.9 µM
SMILES: O=C(Cc1csc2nc(-c3ccc(Br)cc3)cn12)N/N=C/c1ccccc1
- growth at 100 µM (MCF7): 57%
- growth at 100 µM (NCI-H460): 12%
- growth at 100 µM (SF-268): 65%
- TGI (K562): 7.94 µM
- TGI (MOLT-4): 37.2 µM
- TGI (RPMI-8226): > 100 µM
- TGI (A549): 40.7 µM
- TGI (NCI-H322M): 93.3 µM
- GI50 (SF-295): 12 µM
- TGI (SF-295): 37.2 µM
- TGI (U-251): 32.4 µM
- GI50 (LOX IMVI): 12.3 µM
- TGI (LOX IMVI): 91.2 µM
- TGI (SK-MEL-2): > 100 µM
- TGI (OVCAR-4): > 100 µM
- GI50 [1]: 27.5 µM
- TGI [1]: > 100 µM
- TGI (ACHN): 25.7 µM
- GI50 (TK-10): 14.1 µM
- TGI (TK-10): 41.7 µM
- GI50 (NCI/ADR-RES): 13.5 µM
- TGI (NCI/ADR-RES): 67.6 µM
- TGI (BT-549): 49 µM

- GI50 (K562): 1.82 µM
- GI50 (MOLT-4): 4.17 µM
- GI50 (RPMI-8226): 4.27 µM
- GI50 (A549): 10.7 µM
- GI50 (NCI-H322M): 4.37 µM
- GI50 (U-251): 21.4 µM
- GI50 (SK-MEL-2): 26.3 µM
- GI50 (OVCAR-4): > 100 µM
- GI50 (ACHN): 14.8 µM
- GI50 (BT-549): 13.5 µM
SMILES: O=C(Cc1csc2nc(-c3ccc(Br)cc3)cn12)N/N=C/c1ccc(O)cc1
- growth at 100 µM (MCF7): 22%
- growth at 100 µM (NCI-H460): 11%
- growth at 100 µM (SF-268): 42%
- TGI (K562): 7.08 µM
- TGI (MOLT-4): 10 µM
- TGI (RPMI-8226): 39.8 µM
- TGI (A549): 33.9 µM
- TGI (NCI-H322M): 34.7 µM
- GI50 (SF-295): 12 µM
- TGI (SF-295): 41.7 µM
- TGI (U-251): > 100 µM
- GI50 (LOX IMVI): 11.2 µM
- TGI (LOX IMVI): 26.3 µM
- TGI (SK-MEL-2): 95.5 µM
- TGI (OVCAR-4): > 100 µM
- GI50 [1]: 26.3 µM
- TGI [1]: 89.1 µM
- TGI (ACHN): 51.3 µM
- GI50 (TK-10): 9.77 µM
- TGI (TK-10): 33.1 µM
- GI50 (NCI/ADR-RES): 21.4 µM
- TGI (NCI/ADR-RES): 61.7 µM
- TGI (BT-549): 56.2 µM
